Measurements as given in patent US12371428B2 (Exelixis, Inc., priority 2019, dated 2025).
pIC50: −log10 of the molar value.

How the values were obtained:
[1] = molecular target: Human KDR (residues 790-1356) (Homo sapiens (Human), UniProt P35968); assay: Human KDR kinase assay, HTRF KinEase (Example B-2); assay type: biochemical
Outline: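 Ten compound concentrations (3% DMSO final) were pre-plated, then KDR (790-1356) with biotinylated peptide in Mg/Mn/DTT buffer was added; ATP at Km (4.0 μM) started a 40 min room-temperature reaction. Detection used Eu-TK antibody and SA-XL665 in EDTA buffer; activity normalized to DMSO and reference inhibitor, IC50 by logistic fit.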

[2] = molecular target: Mer (phospho-Mer, MERTK-transfected 293A cells) (Homo sapiens (Human), UniProt Q12866); assay: Mer autophosphorylation ELISA in transient transfected 293A cells (Example H); assay type: cell-based; settings: cellular activity; Mer autophosphorylation ELISA in transient transfected 293A cells
Outline: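 MERTK-transfected 293A; 8-pt dose, 1 h, serum-free, 0.3% DMSO. Cold lysis with orthovanadate and protease/phosphatase inhibitors. Phospho-Mer by DuoSet IC ELISA vs phospho-Mer standard. IC50: 4-PL fit; DMSO = 100%, reference inhibitor = 0%.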

[3] = protocol of Example B-2 (other compounds)

Chain of Human KDR (residues 790-1356) (P35968 790-1356): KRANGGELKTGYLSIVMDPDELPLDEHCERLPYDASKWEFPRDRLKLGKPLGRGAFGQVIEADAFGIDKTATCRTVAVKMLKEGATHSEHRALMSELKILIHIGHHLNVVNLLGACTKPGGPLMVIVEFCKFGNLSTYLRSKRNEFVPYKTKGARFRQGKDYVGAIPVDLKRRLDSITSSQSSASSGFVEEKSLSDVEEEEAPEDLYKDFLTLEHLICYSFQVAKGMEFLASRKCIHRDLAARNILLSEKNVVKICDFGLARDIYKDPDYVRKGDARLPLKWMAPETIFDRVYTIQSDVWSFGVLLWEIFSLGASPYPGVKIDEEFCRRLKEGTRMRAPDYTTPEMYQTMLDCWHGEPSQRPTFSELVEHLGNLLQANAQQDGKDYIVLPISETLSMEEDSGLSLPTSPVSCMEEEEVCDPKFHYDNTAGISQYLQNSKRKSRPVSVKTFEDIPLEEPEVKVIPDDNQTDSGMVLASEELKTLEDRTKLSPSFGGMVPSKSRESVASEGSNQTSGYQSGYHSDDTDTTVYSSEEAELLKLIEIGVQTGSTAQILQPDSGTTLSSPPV
Chain of Mer (phospho-Mer, MERTK-transfected 293A cells) (Q12866 21-999): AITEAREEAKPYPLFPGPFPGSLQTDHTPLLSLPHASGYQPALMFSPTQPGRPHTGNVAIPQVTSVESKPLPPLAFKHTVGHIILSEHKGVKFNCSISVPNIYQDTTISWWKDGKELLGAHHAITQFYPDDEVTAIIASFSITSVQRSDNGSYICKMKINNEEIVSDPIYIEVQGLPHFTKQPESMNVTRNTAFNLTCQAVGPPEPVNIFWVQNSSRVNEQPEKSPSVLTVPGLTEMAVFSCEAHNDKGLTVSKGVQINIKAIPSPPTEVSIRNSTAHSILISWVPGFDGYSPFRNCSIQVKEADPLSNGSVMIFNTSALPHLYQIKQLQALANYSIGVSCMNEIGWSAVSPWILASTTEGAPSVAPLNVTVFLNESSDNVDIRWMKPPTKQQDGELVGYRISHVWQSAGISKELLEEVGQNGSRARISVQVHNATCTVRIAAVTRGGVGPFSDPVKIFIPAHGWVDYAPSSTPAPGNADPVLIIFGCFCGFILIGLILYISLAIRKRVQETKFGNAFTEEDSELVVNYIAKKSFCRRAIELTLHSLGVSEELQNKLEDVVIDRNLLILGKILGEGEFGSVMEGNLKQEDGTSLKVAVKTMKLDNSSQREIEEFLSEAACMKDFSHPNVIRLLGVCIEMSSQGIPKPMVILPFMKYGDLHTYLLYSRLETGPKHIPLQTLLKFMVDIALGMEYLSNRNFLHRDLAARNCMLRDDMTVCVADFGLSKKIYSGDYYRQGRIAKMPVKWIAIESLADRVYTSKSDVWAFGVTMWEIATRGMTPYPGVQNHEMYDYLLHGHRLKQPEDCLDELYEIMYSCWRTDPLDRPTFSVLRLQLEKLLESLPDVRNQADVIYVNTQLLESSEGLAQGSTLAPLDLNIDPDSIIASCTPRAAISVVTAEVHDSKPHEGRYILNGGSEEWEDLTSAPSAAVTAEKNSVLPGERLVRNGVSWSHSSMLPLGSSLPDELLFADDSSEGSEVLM

| SMILES | pIC50 [1, 3] | pIC50 [2] | pIC50 ([1]; protocol of Example B-2) |
| --- | --- | --- | --- |
| COc1cc2nccc(Oc3ccc(NC(=O)c4c(C)nc(C)c(-c5ccc(F)cc5)c4O)cc3F)c2nc1OC [Compound 154, N-[4-[(6,7-Dimethoxy-1,5-naphthyridin-4-yl)oxy]-3-fluorophenyl]-5-(4-fluorophenyl)-4-hydroxy-2,6-dimethylpyridine-3-carboxamide] | > 7.00 | > 7.00 | – |
| COc1cnc2c(Oc3ccc(NC(=O)c4cn(C)c(C)c(-c5ccc(F)cc5C)c4=O)cc3)ccnc2c1 [Compound 187, 5-(4-Fluoro-2-methylphenyl)-N-[4-[(7-methoxy-1,5-naphthyridin-4-yl)oxy]phenyl]-1,6-dimethyl-4-oxopyridine-3-carboxamide] | < 6.52 | > 7.00 | – |
| COc1cc2nccc(Oc3ccc(NC(=O)c4ccc(C)n(-c5ccc(F)cc5)c4=O)cc3F)c2nc1OC [Compound 254, N-[4-[(6,7-Dimethoxy-1,5-naphthyridin-4-yl)oxy]-3-fluorophenyl]-1-(4-fluorophenyl)-6-methyl-2-oxopyridine-3-carboxamide] | > 7.00 | > 7.00 | – |
| COc1cc2nccc(Oc3ccc(NC(=O)c4cn(CC(F)(F)F)c(C)c(-c5ccc(F)cc5)c4=O)cc3)c2cc1OC [Compound 260, N-[4-(6,7-Dimethoxyquinolin-4-yl)oxyphenyl]-5-(4-fluorophenyl)-6-methyl-4-oxo-1-(2,2,2-trifluoroethyl)pyridine-3-carboxamide] | < 6.52 | > 7.00 | – |
| COCCOc1ccc2nccc(Oc3ccc(NC(=O)c4cnc(C)c(-c5ccc(F)cc5)c4O)cc3F)c2n1 [Compound 348, N-[3-fluoro-4-[[6-(2-methoxyethoxy)-1,5-naphthyridin-4-yl]oxy]phenyl]-5-(4-fluorophenyl)-4-hydroxy-6-methylpyridine-3-carboxamide] | 6.52 to 7.00 | > 7.00 | – |
| COCCOc1ccc2nccc(Oc3ccc(NC(=O)c4c(C)nc(C)c(-c5ccc(F)cc5)c4O)cc3F)c2n1 [Compound 349, N-[3-fluoro-4-[[6-(2-methoxyethoxy)-1,5-naphthyridin-4-yl]oxy]phenyl]-5-(4-fluorophenyl)-4-hydroxy-2,6-dimethylpyridine-3-carboxamide] | > 7.00 | > 7.00 | – |
| COc1cc2ncnc(Oc3ccc(NC(=O)c4c5n(cc(-c6ccc(F)cc6)c4=O)CCC5)cc3F)c2cc1OC [Compound 406, N-[4-(6,7-dimethoxyquinazolin-4-yl)oxy-3-fluorophenyl]-6-(4-fluorophenyl)-7-oxo-2,3-dihydro-1H-indolizine-8-carboxamide] | < 6.52 | > 7.00 | – |
| C=C(C)c1cnc2c(Oc3ccc(NC(=O)c4cnc(C)c(-c5ccc(F)cc5C)c4O)cc3)ccnc2c1 [Compound 448, 5-(4-fluoro-2-methylphenyl)-4-hydroxy-6-methyl-N-[4-[(7-prop-1-en-2-yl-1,5-naphthyridin-4-yl)oxy]phenyl]pyridine-3-carboxamide] | – | > 7.00 | 6.52 to 7.00 |
| C=C(C)c1cnc2c(Oc3ccc(NC(=O)c4cnc(C)c(-c5ccc(F)cc5C)c4O)cc3F)ccnc2c1 [Compound 450, 5-(4-fluoro-2-methylphenyl)-N-[3-fluoro-4-[(7-prop-1-en-2-yl-1,5-naphthyridin-4-yl)oxy]phenyl]-4-hydroxy-6-methylpyridine-3-carboxamide] | – | > 7.00 | 6.52 to 7.00 |
| C=C(C)c1cnc2c(Oc3ccc(NC(=O)c4c(C)nc(C)c(-c5ccc(F)cc5)c4O)cc3F)ccnc2c1 [Compound 451, 5-(4-fluorophenyl)-N-[3-fluoro-4-[(7-prop-1-en-2-yl-1,5-naphthyridin-4-yl)oxy]phenyl]-4-hydroxy-2,6-dimethylpyridine-3-carboxamide] | – | > 7.00 | > 7.00 |
| C=C(C)c1cnc2c(Oc3ccc(NC(=O)c4cnc(C)c(-c5ccc(F)cc5)c4O)cc3)ccnc2c1 [Compound 454, 5-(4-fluorophenyl)-4-hydroxy-6-methyl-N-[4-[(7-prop-1-en-2-yl-1,5-naphthyridin-4-yl)oxy]phenyl]pyridine-3-carboxamide] | – | > 7.00 | > 7.00 |
| C=C(C)c1cnc2c(Oc3ccc(NC(=O)c4c(C)nc(C)c(-c5ccc(F)cc5)c4O)cc3)ccnc2c1 [Compound 455, 5-(4-fluorophenyl)-4-hydroxy-2,6-dimethyl-N-[4-[(7-prop-1-en-2-yl-1,5-naphthyridin-4-yl)oxy]phenyl]pyridine-3-carboxamide] | – | > 7.00 | > 7.00 |
| C=C(C)c1cnc2c(Oc3ccc(NC(=O)c4cnc(C)c(-c5ccc(F)cc5)c4O)cc3F)ccnc2c1 [Compound 456, 5-(4-fluorophenyl)-N-[3-fluoro-4-[(7-prop-1-en-2-yl-1,5-naphthyridin-4-yl)oxy]phenyl]-4-hydroxy-6-methylpyridine-3-carboxamide] | – | > 7.00 | > 7.00 |
| C=C(C)c1cnc2c(Oc3ccc(NC(=O)c4c(C)cc(C)n(-c5ccc(F)cc5)c4=O)cc3F)ccnc2c1 [Compound 457, 1-(4-fluorophenyl)-N-[3-fluoro-4-[(7-prop-1-en-2-yl-1,5-naphthyridin-4-yl)oxy]phenyl]-4,6-dimethyl-2-oxopyridine-3-carboxamide] | – | > 7.00 | > 7.00 |
| COc1nc2c(Oc3ccc(NC(=O)c4cnc(C)c(-c5ccc(F)cc5)c4O)cc3F)ccnc2cc1C [Compound 458, N-[3-fluoro-4-[(6-methoxy-7-methyl-1,5-naphthyridin-4-yl)oxy]phenyl]-5-(4-fluorophenyl)-4-hydroxy-6-methylpyridine-3-carboxamide] | – | > 7.00 | 6.52 to 7.00 |
| COc1nc2c(Oc3ccc(NC(=O)c4c(C)nc(C)c(-c5ccc(F)cc5)c4O)cc3F)ccnc2cc1C [Compound 459, N-[3-fluoro-4-[(6-methoxy-7-methyl-1,5-naphthyridin-4-yl)oxy]phenyl]-5-(4-fluorophenyl)-4-hydroxy-2,6-dimethylpyridine-3-carboxamide] | – | > 7.00 | 6.52 to 7.00 |
| COc1nc2c(Oc3ccc(NC(=O)c4cnc(C)c(-c5ccc(F)cc5C)c4O)cc3F)ccnc2cc1C [Compound 460, N-[3-fluoro-4-[(6-methoxy-7-methyl-1,5-naphthyridin-4-yl)oxy]phenyl]-5-(4-fluoro-2-methylphenyl)-4-hydroxy-6-methylpyridine-3-carboxamide] | – | > 7.00 | < 6.52 |
| COc1cc2nccc(Oc3ccc(NC(=O)c4c(C)ncc(-c5ccc(F)cc5C)c4O)cc3F)c2nc1OC [Compound 479, N-[4-[(6,7-dimethoxy-1,5-naphthyridin-4-yl)oxy]-3-fluorophenyl]-5-(4-fluoro-2-methylphenyl)-4-hydroxy-2-methylpyridine-3-carboxamide] | – | > 7.00 | > 7.00 |
| COc1ccc2nccc(Oc3ccc(NC(=O)c4c(C)ncc(-c5ccc(F)cc5C)c4O)cc3F)c2n1 [Compound 480, N-[3-fluoro-4-[(6-methoxy-1,5-naphthyridin-4-yl)oxy]phenyl]-5-(4-fluoro-2-methylphenyl)-4-hydroxy-2-methylpyridine-3-carboxamide] | – | > 7.00 | 6.52 to 7.00 |
| COc1cc2nccc(Oc3ccc(NC(=O)c4c(C)n(C)cc(-c5ccc(F)cc5C)c4=O)cc3F)c2nc1OC [Compound 481, N-[4-[(6,7-dimethoxy-1,5-naphthyridin-4-yl)oxy]-3-fluorophenyl]-5-(4-fluoro-2-methylphenyl)-1,2-dimethyl-4-oxopyridine-3-carboxamide] | – | > 7.00 | 6.52 to 7.00 |
| COCCOc1cc2nccc(Oc3ccc(NC(=O)c4c(COC)nc(C)c(-c5ccc(F)cc5)c4O)cc3F)c2nc1OC [Compound 482, N-[3-fluoro-4-[[6-methoxy-7-(2-methoxyethoxy)-1,5-naphthyridin-4-yl]oxy]phenyl]-5-(4-fluorophenyl)-4-hydroxy-2-(methoxymethyl)-6-methylpyridine-3-carboxamide] | – | > 7.00 | > 7.00 |
| COc1ccc2nccc(Oc3ccc(NC(=O)c4c(C)n(C)cc(-c5ccc(F)cc5C)c4=O)cc3F)c2n1 [Compound 483, N-[3-fluoro-4-[(6-methoxy-1,5-naphthyridin-4-yl)oxy]phenyl]-5-(4-fluoro-2-methylphenyl)-1,2-dimethyl-4-oxopyridine-3-carboxamide] | – | > 7.00 | < 6.52 |
| COc1cc2c(Oc3ccc(NC(=O)c4ccc(C)n(-c5ccc(F)cc5)c4=O)cc3F)ccnc2cn1 [Compound 494, N-[3-fluoro-4-[(6-methoxy-1,7-naphthyridin-4-yl)oxy]phenyl]-1-(4-fluorophenyl)-6-methyl-2-oxopyridine-3-carboxamide] | – | > 7.00 | 6.52 to 7.00 |
| COc1cc2nccc(Oc3ccc(NC(=O)c4cn(C)cc(-c5ccc(F)cc5C)c4=O)cc3F)c2nc1OC [Compound 503, N-[4-[(6,7-dimethoxy-1,5-naphthyridin-4-yl)oxy]-3-fluorophenyl]-5-(4-fluoro-2-methylphenyl)-1-methyl-4-oxopyridine-3-carboxamide] | – | > 7.00 | > 7.00 |
| CCc1ncc(C(=O)Nc2ccc(Oc3ccnc4cc(OC)c(OC)nc34)c(F)c2)c(O)c1-c1ccc(F)cc1 [Compound 504, N-[4-[(6,7-dimethoxy-1,5-naphthyridin-4-yl)oxy]-3-fluorophenyl]-6-ethyl-5-(4-fluorophenyl)-4-hydroxypyridine-3-carboxamide] | – | > 7.00 | > 7.00 |
| Cc1cc(F)ccc1-c1c(C)nc(C)c(C(=O)Nc2ccc(Oc3ccnc4cccnc34)c(F)c2)c1O [Compound 505, 5-(4-fluoro-2-methylphenyl)-N-[3-fluoro-4-(1,5-naphthyridin-4-yloxy)phenyl]-4-hydroxy-2,6-dimethylpyridine-3-carboxamide] | – | 6.52 to 7.00 | < 6.52 |
